# Data: ChEMBL document CHEMBL4257490, “Development of a peptide-based bifunctional chelator conjugated to a cytotoxic drug for the treatment of melanotic melanoma” (Medchemcomm, 2018)
# Columns and labels:
# [1] = Drug uptake in spleen of Balb/c mouse allografted with mouse B16F10 cells using 99mTc(CO)3-labeled compound at 10 to 12 MBq/kg, iv measured at 4 hrs; format: ADME, organism-based; conditions: in vivo
# [2] = Drug uptake in kidney of Balb/c mouse allografted with mouse B16F10 cells using 99mTc(CO)3-labeled compound at 10 to 12 MBq/kg, iv measured at 4 hrs; format: ADME, organism-based; conditions: in vivo
# [3] = Metabolic stability in rat serum assessed as parent compound remaining using 99mTc(CO)3-labeled compound after 24 hrs by TLC method; format: ADME, cell-free; conditions: read-out: Stability
# [4] = Drug uptake in blood of Balb/c mouse allografted with mouse B16F10 cells using 99mTc(CO)3-labeled compound at 10 to 12 MBq/kg, iv measured at 2 hrs; format: ADME, organism-based; conditions: in vivo
# [5] = Ratio of drug level in tumor to muscle of Balb/c mouse allografted with mouse B16F10 cells using 99mTc(CO)3-labeled compound at 10 to 12 MBq/kg, iv measured at 4 hrs; format: ADME, organism-based, Tumor/tissue; conditions: in vivo
# [6] = Drug uptake in muscle of Balb/c mouse allografted with mouse B16F10 cells using 99mTc(CO)3-labeled compound at 10 to 12 MBq/kg, iv measured at 2 hrs; format: ADME, organism-based, Muscle tissue; conditions: in vivo
# [7] = Drug uptake in tumor muscle of Balb/c mouse allografted with mouse B16F10 cells using 99mTc(CO)3-labeled compound at 10 to 12 MBq/kg, iv measured at 4 hrs; format: ADME, organism-based; conditions: in vivo
# [8] = Drug uptake in urinary bladder of Balb/c mouse allografted with mouse B16F10 cells using 99mTc(CO)3-labeled compound at 4 to 8 MBq, iv measured at 4 hrs by scintigraphic imaging method; format: ADME, organism-based; conditions: in vivo
# [9] = Drug uptake in stomach of Balb/c mouse allografted with mouse B16F10 cells using 99mTc(CO)3-labeled compound at 10 to 12 MBq/kg, iv measured at 2 hrs; format: ADME, organism-based; conditions: in vivo
# [10] = Drug uptake in mouse B16F10 cells using 99mTc(CO)3-labeled compound at 15 to 20 MBq/ml after 240 mins by gamma scintillation counting method; format: ADME, cell-based; conditions: b16-f10, 4 h
# [11] = Ratio of drug level in tumor to muscle of Balb/c mouse allografted with mouse B16F10 cells using 99mTc(CO)3-labeled compound at 10 to 12 MBq/kg, iv measured at 2 hrs; format: ADME, organism-based, Tumor/tissue; conditions: in vivo
# [12] = Hemolytic activity in rat erythrocytes at 100 uM after 1 hr relative to control; format: ADME, cell-based, Erythrocyte; conditions: read-out: Activity
# [13] = Drug uptake in heart of Balb/c mouse allografted with mouse B16F10 cells using 99mTc(CO)3-labeled compound at 10 to 12 MBq/kg, iv measured at 4 hrs; format: ADME, organism-based; conditions: in vivo
# [14] = Drug uptake in liver of Balb/c mouse allografted with mouse B16F10 cells using 99mTc(CO)3-labeled compound at 10 to 12 MBq/kg, iv measured at 2 hrs; format: ADME, organism-based; conditions: in vivo
# [15] = Drug uptake in gastrointestinal tract of Balb/c mouse allografted with mouse B16F10 cells using 99mTc(CO)3-labeled compound at 4 to 8 MBq, iv measured at 4 hrs by scintigraphic imaging method; format: ADME, organism-based; conditions: in vivo
# [16] = Drug uptake in kidney of Balb/c mouse allografted with mouse B16F10 cells using 99mTc(CO)3-labeled compound at 10 to 12 MBq/kg, iv measured at 2 hrs; format: ADME, organism-based; conditions: in vivo
# [17] = Drug uptake in tumor of Balb/c mouse allografted with mouse B16F10 cells using 99mTc(CO)3-labeled compound at 4 to 8 MBq, iv measured at 4 hrs by scintigraphic imaging method; format: ADME, organism-based, Neoplasm; conditions: in vivo
# [18] = Drug uptake in spleen of Balb/c mouse allografted with mouse B16F10 cells using 99mTc(CO)3-labeled compound at 10 to 12 MBq/kg, iv measured at 2 hrs; format: ADME, organism-based; conditions: in vivo
# [19] = Drug uptake in liver of Balb/c mouse allografted with mouse B16F10 cells using 99mTc(CO)3-labeled compound at 10 to 12 MBq/kg, iv measured at 4 hrs; format: ADME, organism-based; conditions: in vivo
# [20] = Drug uptake in mouse B16F10 cells using 99mTc(CO)3-labeled compound at 15 to 20 MBq/ml after 240 mins by gamma scintillation counting method relative to total added activity; format: ADME, cell-based; conditions: b16-f10, 4 h
# [21] = Hemolytic activity in rat erythrocytes up to 50 uM after 1 hr relative to control; format: ADME, cell-based, Erythrocyte; conditions: read-out: Activity
# [22] = Ratio of drug level in tumor to blood of Balb/c mouse allografted with mouse B16F10 cells using 99mTc(CO)3-labeled compound at 10 to 12 MBq/kg, iv measured at 2 hrs; format: ADME, organism-based, Tumor/tissue
# [23] = Drug uptake in kidney of Balb/c mouse allografted with mouse B16F10 cells using 99mTc(CO)3-labeled compound at 4 to 8 MBq, iv measured at 4 hrs by scintigraphic imaging method; format: ADME, organism-based; conditions: in vivo
# [24] = Drug uptake in liver of Balb/c mouse allografted with mouse B16F10 cells using 99mTc(CO)3-labeled compound at 4 to 8 MBq, iv measured at 4 hrs by scintigraphic imaging method; format: ADME, organism-based; conditions: in vivo
# [25] = n-Octanol-phosphate buffer partition co-efficient, log P of 99mTc(CO)3-labeled compound at 2 to 3 KBq after 1 min by gamma scintillation counting method; format: physicochemical
# [26] = Drug uptake in heart of Balb/c mouse allografted with mouse B16F10 cells using 99mTc(CO)3-labeled compound at 10 to 12 MBq/kg, iv measured at 2 hrs; format: ADME, organism-based; conditions: in vivo
# [27] = Drug uptake in mouse B16F10 cells using 99mTc(CO)3-labeled compound at 15 to 20 MBq/ml after 30 mins by gamma scintillation counting method; format: ADME, cell-based; conditions: b16-f10, 0.5 h
# [28] = Drug uptake in intestine of Balb/c mouse allografted with mouse B16F10 cells using 99mTc(CO)3-labeled compound at 10 to 12 MBq/kg, iv measured at 4 hrs; format: ADME, organism-based; conditions: in vivo
# [29] = Drug uptake in muscle of Balb/c mouse allografted with mouse B16F10 cells using 99mTc(CO)3-labeled compound at 10 to 12 MBq/kg, iv measured at 4 hrs; format: ADME, organism-based, Muscle tissue; conditions: in vivo
# [30] = Drug uptake in mouse B16F10 cells using 99mTc(CO)3-labeled compound at 15 to 20 MBq/ml after 30 mins by gamma scintillation counting method relative to total added activity; format: ADME, cell-based; conditions: b16-f10, 0.5 h
# [31] = Drug uptake in blood of Balb/c mouse allografted with mouse B16F10 cells using 99mTc(CO)3-labeled compound at 10 to 12 MBq/kg, iv measured at 4 hrs; format: ADME, organism-based; conditions: in vivo
# [32] = Drug uptake in intestine of Balb/c mouse allografted with mouse B16F10 cells using 99mTc(CO)3-labeled compound at 10 to 12 MBq/kg, iv measured at 2 hrs; format: ADME, organism-based; conditions: in vivo
# [33] = Drug degradation in histidine solution using 99mTc(CO)3-labeled compound after 24 hrs by TLC method; format: physicochemical; conditions: read-out: Drug degradation
# [34] = Drug uptake in tumor muscle of Balb/c mouse allografted with mouse B16F10 cells using 99mTc(CO)3-labeled compound at 10 to 12 MBq/kg, iv measured at 2 hrs; format: ADME, organism-based; conditions: in vivo
# [35] = Ratio of drug level in tumor to blood of Balb/c mouse allografted with mouse B16F10 cells using 99mTc(CO)3-labeled compound at 10 to 12 MBq/kg, iv measured at 4 hrs; format: ADME, organism-based, Tumor/tissue
# [36] = Drug uptake in stomach of Balb/c mouse allografted with mouse B16F10 cells using 99mTc(CO)3-labeled compound at 10 to 12 MBq/kg, iv measured at 4 hrs; format: ADME, organism-based; conditions: in vivo
# [37] = Drug uptake in urine of Balb/c mouse allografted with mouse B16F10 cells using 99mTc(CO)3-labeled compound at 10 to 12 MBq/kg, iv measured at 2 hrs; format: ADME, organism-based; conditions: in vivo
# [38] = Stability in saline assessed as parent compond remaining using 99mTc(CO)3-labeled compound after 24 hrs by TLC method; format: physicochemical; conditions: read-out: Stability
# [39] = Drug uptake in urine of Balb/c mouse allografted with mouse B16F10 cells using 99mTc(CO)3-labeled compound at 10 to 12 MBq/kg, iv measured at 4 hrs; format: ADME, organism-based; conditions: in vivo
# [40] = Drug uptake in lung of Balb/c mouse allografted with mouse B16F10 cells using 99mTc(CO)3-labeled compound at 10 to 12 MBq/kg, iv measured at 2 hrs; format: ADME, organism-based; conditions: in vivo
# [41] = Drug uptake in lung of Balb/c mouse allografted with mouse B16F10 cells using 99mTc(CO)3-labeled compound at 10 to 12 MBq/kg, iv measured at 4 hrs; format: ADME, organism-based; conditions: in vivo
substance,measurement,setting,value
H-HYKHGK-NH2,Drug uptake,[1],0.45 % ID/g
same,Drug uptake,[2],15.76 % ID/g
same,remaining at 24 h,[3],≥ 92%
same,Drug uptake,[4],1.88 %ID/ml
same,Ratio,[5],18.81
same,Drug uptake,[6],0.18 % ID/g
same,Drug uptake,[7],3.01 % ID/g
same,Drug uptake,[8],Active
same,Drug uptake,[9],0.23 % ID/g
same,Drug uptake,[10],83%
same,Ratio,[11],10.11
same,"hemolysis at 1 h, 100 µM",[12],7 to 9%
same,Drug uptake,[13],0.06 % ID/g
same,Drug uptake,[14],18.15 % ID/g
same,Drug uptake,[15],Active
same,Drug uptake,[16],17.15 % ID/g
same,Drug uptake,[17],Active
same,Drug uptake,[18],0.63 % ID/g
same,Drug uptake,[19],14.64 % ID/g
same,Drug uptake,[20],9.59%
same,hemolysis at 1 h,[21],5 to 6%
same,Kp at 2 h,[22],0.97
same,Drug uptake,[23],Active
same,Drug uptake,[24],Active
same,logP at 1 min,[25],-0.978
same,Drug uptake,[26],0.08 % ID/g
same,Drug uptake,[27],41.41%
same,Drug uptake,[28],8.32 % ID/g
same,Drug uptake,[29],0.16 % ID/g
same,Drug uptake,[30],4.76%
same,Drug uptake,[31],1.65 %ID/ml
same,Drug uptake,[32],7.61 % ID/g
same,degraded at 24 h,[33],5%
same,Drug uptake,[34],1.83 % ID/g
same,Kp at 4 h,[35],1.82
same,Drug uptake,[36],0.19 % ID/g
same,Drug uptake,[37],42.15 %ID/ml
same,remaining at 24 h,[38],≥ 92%
same,Drug uptake,[39],49.26 %ID/ml
same,Drug uptake,[40],0.33 % ID/g
same,Drug uptake,[41],0.24 % ID/g
